Data on eight compounds can be found in PubChem BioAssay (NCI).

Molecules are shown by their SMILES. “And” between values parts separate entries of the source, which are not always exact repeats. Equal entries are not always repeated.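 Exposure lasted 48 hours, with cells grown in 96-well plates and compounds tested at five concentrations. The concentration for 50% growth inhibition is given as GI50. TGI is the concentration that stops growth completely.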

Some test systems named below: A549 NSCLC; BT-549 breast; CCRF-CEM leukemia; HCC-2998 colon; HCT-15 colon; HOP-92 NSCLC; HT29 colon; LOX IMVI melanoma; MALME-3M melanoma; SK-MEL-5 melanoma.
Holding throughout (assay): DTP human tumour cell line panel, 48 h

Regarding `CCN(CC)CCOc1nc2ccc(OC)cc2c2c1-c1ccc(OC)cc1C2=O`, the GI50 is 0.387 µM in the assay on A549 NSCLC; 5.94 µM in the assay with BT-549 breast; 0.299 µM in the assay with CCRF-CEM leukemia; 1.31 µM in the assay on HCC-2998 colon; 0.584 µM in the assay with HCT-15 colon; 0.786 µM with HOP-92 NSCLC. Further, the GI50 in the assay with HT29 colon was 0.545 µM; in the assay on LOX IMVI melanoma, 0.513 µM; in the assay on MALME-3M melanoma, 1.68 µM; in the assay on SK-MEL-5 melanoma it was 1.57 µM. For the same compound, the TGI with A549 NSCLC was 1.59 µM; with BT-549 breast, 18 µM; in the assay on CCRF-CEM leukemia, 3.26 µM; in the assay on HCC-2998 colon it was 6.68 µM; in the assay on HCT-15 colon, 2.27 µM; in the assay with HOP-92 NSCLC it was 5.36 µM. Also, the TGI with HT29 colon is 1.86 µM; in the assay with LOX IMVI melanoma, 1.88 µM; in the assay with MALME-3M melanoma, 3.22 µM; with SK-MEL-5 melanoma it was 2.94 µM.
For `CNc1ccc2nc3ccc(=[N+](C)C)cc-3sc2c1`, the GI50 in the assay with A549 NSCLC is 0.417 µM and 0.338 µM; with BT-549 breast, 4.87 µM and 5.73 µM; with CCRF-CEM leukemia it was 0.432 µM and 0.489 µM; in the assay with HCC-2998 colon it was 2.84 µM and 1.12 µM; in the assay on HCT-15 colon, 1.57 µM and 0.424 µM; in the assay on HT29 colon it was 2.92 µM and 3.06 µM. Further, the GI50 with LOX IMVI melanoma was 0.443 µM and 0.368 µM; with MALME-3M melanoma, 0.335 µM and 0.482 µM; in the assay on SK-MEL-5 melanoma, 0.212 µM and 0.263 µM. The TGI with A549 NSCLC is 12.1 µM and 5.21 µM; in the assay with BT-549 breast, 20.7 µM and 22.6 µM; in the assay on CCRF-CEM leukemia it was 17 µM and > 100 µM; in the assay on HCC-2998 colon, 15.9 µM and 18.6 µM; in the assay on HCT-15 colon it was 18.2 µM and 16.5 µM; with HOP-92 NSCLC, 29.8 µM and 5.06 µM. The total growth inhibition concentration (TGI) in the assay with HT29 colon was 12.2 µM and 12.5 µM; with LOX IMVI melanoma, 4.47 µM and 2.15 µM; in the assay on MALME-3M melanoma, 2.36 µM and 1.97 µM; in the assay on SK-MEL-5 melanoma, 0.99 µM and 0.875 µM.
Take `CC(=O)Nc1ccc2c(c1)c(C1=C(c3cn(C)c4ccccc34)C(=O)NC1=O)cn2C`: the GI50 is 1.65 µM in the assay with A549 NSCLC; 1.55 µM in the assay with BT-549 breast; 0.991 µM in the assay with CCRF-CEM leukemia; over 11.2 µM in the assay with HCC-2998 colon; 1.02 µM with HCT-15 colon; 0.807 µM in the assay on HOP-92 NSCLC. For the same compound, the GI50 in the assay on HT29 colon is 0.925 µM; with LOX IMVI melanoma it was 1.63 µM; with MALME-3M melanoma, over 9.93 µM; in the assay with SK-MEL-5 melanoma, 1.45 µM. The TGI is over 25 µM with A549 NSCLC; 14.8 µM with BT-549 breast; over 25 µM in the assay on CCRF-CEM leukemia; over 25 µM in the assay with HCC-2998 colon; over 25 µM with HCT-15 colon; 12 µM with HOP-92 NSCLC. For the same compound, the TGI in the assay with HT29 colon, in the assay on LOX IMVI melanoma, with MALME-3M melanoma and with SK-MEL-5 melanoma was over 25 µM each time.
In the case of `COc1ccc(C(=O)/C(Br)=C/C(=O)O)cc1`, the GI50 with A549 NSCLC is 25.2 µM; in the assay with BT-549 breast it was 242 µM; in the assay with CCRF-CEM leukemia, 3.22 µM and 9.43 µM; with HCC-2998 colon, 26.6 µM; in the assay on HCT-15 colon, 10.6 µM; with HT29 colon, 59.4 µM. For the same compound, the GI50 with LOX IMVI melanoma is 18.1 µM; in the assay on MALME-3M melanoma, 18.8 µM; in the assay with SK-MEL-5 melanoma it was 12.7 µM. Further, the TGI in the assay on A549 NSCLC was 275 µM and 246 µM; in the assay with BT-549 breast it was 96.4 µM and 406 µM; with CCRF-CEM leukemia it was 61 µM and 81.7 µM; in the assay with HCC-2998 colon, 76.3 µM and 51.8 µM; with HCT-15 colon, 101 µM and 94.4 µM; in the assay on HOP-92 NSCLC, 93.7 µM and 93.6 µM. The TGI in the assay with HT29 colon is 658 µM and 491 µM; in the assay on LOX IMVI melanoma it was 53.2 µM and 53 µM; in the assay with MALME-3M melanoma it was 47.3 µM and 45.2 µM; with SK-MEL-5 melanoma, 39.6 µM and 47.7 µM.
Turning to `CS(=O)(=O)CCNCc1nc(-c2ccc3ncnc(Nc4ccc(F)c(Cl)c4)c3c2)cs1`, the GI50 was 15.8 µM with A549 NSCLC; over 25 µM in the assay on BT-549 breast; 15.4 µM in the assay with CCRF-CEM leukemia; over 25 µM in the assay with HCC-2998 colon; 17.5 µM with HCT-15 colon; 9.82 µM in the assay on HOP-92 NSCLC. In addition, the GI50 is 16.5 µM in the assay with HT29 colon, 14.1 µM in the assay with LOX IMVI melanoma, over 23.6 µM in the assay on MALME-3M melanoma and 11.5 µM with SK-MEL-5 melanoma. The TGI with A549 NSCLC, with BT-549 breast, in the assay on CCRF-CEM leukemia, in the assay on HCC-2998 colon, in the assay with HCT-15 colon and in the assay with HOP-92 NSCLC was over 25 µM each time. Also, the TGI in the assay on HT29 colon, with LOX IMVI melanoma, with MALME-3M melanoma and in the assay with SK-MEL-5 melanoma was over 25 µM in each case.
In the case of `O=C(NNc1nc(Cl)nc(N2CCN(C(c3ccccc3)c3ccccc3)CC2)n1)c1ccccc1`, the GI50 is 13.5 µM with A549 NSCLC; 1.69 µM in the assay with BT-549 breast; 1.28 µM in the assay on CCRF-CEM leukemia; 1.63 µM in the assay on HCC-2998 colon; 1.62 µM in the assay on HCT-15 colon; 1.72 µM in the assay on HOP-92 NSCLC. Moreover, the GI50 in the assay with HT29 colon is 1.92 µM; in the assay with LOX IMVI melanoma it was 1.54 µM; in the assay on MALME-3M melanoma it was 1.69 µM; in the assay on SK-MEL-5 melanoma, 5.35 µM. Moreover, the TGI turned out to be 30.5 µM in the assay with A549 NSCLC; 3.09 µM in the assay with BT-549 breast; 4.53 µM in the assay with CCRF-CEM leukemia; 3.16 µM in the assay on HCC-2998 colon; 3.42 µM in the assay with HCT-15 colon; 3.68 µM with HOP-92 NSCLC. For the same compound, the concentration for total growth inhibition (TGI) turned out to be 4.07 µM with HT29 colon, 2.94 µM in the assay with LOX IMVI melanoma, 3.34 µM in the assay on MALME-3M melanoma and 18.8 µM in the assay on SK-MEL-5 melanoma.
For `O=P(O)(CCP(=O)(O)c1ccccc1)c1ccccc1`, the TGI in the assay with A549 NSCLC, in the assay on BT-549 breast, with CCRF-CEM leukemia, with HCC-2998 colon, with HCT-15 colon and with HOP-92 NSCLC was over 100 µM each time. The TGI in the assay on HT29 colon, with LOX IMVI melanoma, with MALME-3M melanoma and with SK-MEL-5 melanoma was over 100 µM throughout.
With `CCOc1cc2ncc(C#N)c(Nc3ccc(OCc4cccc(F)c4)c(Cl)c3)c2cc1NC(=O)CC1CCSS1` (stereo not drawn), the GI50 was 0.542 µM in the assay with A549 NSCLC; 1.87 µM in the assay on BT-549 breast; 0.146 µM in the assay on CCRF-CEM leukemia; 0.484 µM with HCC-2998 colon; 2.76 µM in the assay on HCT-15 colon; over 11.5 µM in the assay on HOP-92 NSCLC. Also, the GI50 in the assay with HT29 colon is 0.907 µM; with LOX IMVI melanoma, 0.447 µM; with MALME-3M melanoma, over 22.3 µM; in the assay with SK-MEL-5 melanoma, 2.39 µM. The TGI with A549 NSCLC is 1.16 µM; in the assay with BT-549 breast, over 25 µM; in the assay on CCRF-CEM leukemia it was over 25 µM; in the assay on HCC-2998 colon, 0.974 µM; with HCT-15 colon it was over 25 µM; in the assay with HOP-92 NSCLC, over 25 µM. Moreover, the concentration for total growth inhibition (TGI) in the assay with HT29 colon was over 25 µM; in the assay with LOX IMVI melanoma it was 1.01 µM; with MALME-3M melanoma, over 25 µM; in the assay on SK-MEL-5 melanoma, over 25 µM.

In general, GI50 refers to the concentration that inhibits growth by half. In general, TGI refers to the concentration at which net growth stops. A higher TGI goes with lower sensitivity of the cells.
